From patent publication US20060252774A1, “Regulation of type 5 adenylyl cyclase for treatment of neurodegenerative and cardiac diseases” (priority 2002, published 2006)
pIC50: −log10 of the molar value. Where “and” joins values, the source holds several entries; their conditions need not be identical. Equal entries are not always repeated. Entries after “also recorded” stand apart in the source; their conditions may differ.

Assays:
AC5 [1] = molecular target: T1, AC5 (Canis lupus familiaris, UniProt P30803); assay: AC catalytic activity inhibition, AC5 isoform; format: biochemical; design: IC50 for AC5; other: 5 mM MgCl2 with Gsalpha/GTPgammaS/forskolin (50 micro M); other: in the presence of Gsalpha/GTPgammaS/forskolin; other: 10 micro M; settings: for pIC50: 5 mM MgCl2 with Gsalpha/GTPgammaS/forskolin (50 micro M)
Excerpt: FIG. 11. […] The relative inhibitory activity versus control (% control activity) for various AC isoforms are shown. Data are means±S.D. of quadruplicate determinations.
Classic inhibitors of AC include adenosine analogs or P-site inhibitors, and MDL12330A, a non-nucleic acid inhibitor. However, not much was known about the isoform selectivity of these inhibitors. […] It was previously noted that AC2 was less sensitive to THFA than the other isoforms, giving a selectivity ratio of 1.8 when compared between AC6 and AC2.
Inventors will first determine the selectivity among the AC isoforms (FIG. 12). […] The IC50 values were calculated to be 0.32 micro M for AC5, 11.1 micro M for AC3, 65.3 micro M for AC2. The selectivity ratio of HI30435 was 207 between AC5 and AC2. […] The selectivity ratio was 18 between AC5 and AC2.

AC5 [2] = molecular target: T1, AC5; assay: Adenyl cyclase stimulation by forskolin derivatives, High five cell membranes overexpressing type V; format: biochemical; design: made in house; host or cells: High Five insect cells (membranes); settings: forskolin derivatives
Protocol: FIG. 15: Effect of forskolin, 6[3-(dimethylamino)propionyl]-14,15-dihydroforskolin, and NKH477 on adenyl cyclase [isforms.] isoforms: Forskolin derivatives dose response effect (A-C). High five cell membranes overexpressing type II (A), type III (B), and type V (C) adenyl cyclases. Adenyl cyclase activity was measured in the presence of 5 mM of MgCl2 with various concentrations of forskolin (closed circles), 6[3-(dimethylamino)propionyl]-14,15-dihydroforskolin (D, open triangles) or NKH477 (open circles). Means±SEM from 4 independent experiments are shown. *, p<0.01 differences from the value with forskolin.

[3] = tested on: conscious WT and AC5KO mice; assay: Physiological studies in conscious mice: HR (ECG) and arterial pressure; format: in vivo, mouse; settings: for increase in HR: 1 μg/g i.v.; for change of HR: 0.75 mg/kg i.v.
Excerpt: FIG. 19: Muscarinic regulation of cardiac function in vivo. A, Effects of atropine. […] B, Effect of ACh. […] C, Baroreflex regulation of HR.
In AC5KO and WT mice, four ECG wires (New England Electric Wire Corporation, Lisbon, N.H., USA) were placed subcutaneously, a silicone elastomer tubing (Cardiovascular Instrument Corp., Wakefield, Mass., USA) was inserted into the right external jugular vein and a 1.4 F micromanometer catheter (Millar Instruments, Inc., Houston, Tex., USA) was inserted into the lower abdominal aorta via the femoral artery as described previously with some modifications. The ECG wires, the silicone elastomer tubing and the micromanometer catheter were tunneled subcutaneously to the back, externalized, and secured in a plastic cap. On the day of the study, each mouse was placed in the mouse holder, the jugular venous catheter was accessed and connected to a microliter syringe (Hamilton Co., Reno, Nev., USA), the 1.4 F micromanometer catheter was connected to a recorder (Dash 4u; Astro-Med, Inc., West Warwick, R.I., USA) and the ECG wires were connected to an ECG amplifier (Gould Inc., Cleveland, Ohio, USA). All experiments were recorded with animals in the conscious state. After at least 6 hours recovery from the implantation of the catheter, when a stable HR was achieved, the baseline ECG and arterial pressure (AP) were recorded for 5 min. Ach (0.05 μg/g) was then administered intravenously (i.v.), and the ECG and AP recording were repeated. A recovery period of 15 min was allowed for the HR and AP to return to baseline before administering the next drug. Baseline HR slowing was examined in response to phenylephrine (0.2 μg/g i.v.).
Electrocardiogram (ECG) wires, a jugular vein catheter for drug infusion, and a femoral artery catheter for arterial pressure monitoring were implanted under anesthesia as described previously. […] Intravenous (i.v.) infusion of ISO (0.04 μg/kg/min i.v. for 5 min) was performed using an infusion pump. To examine the responses to a muscarinic agonist, acetylcholine (ACh) (25 mg/kg i.p.) was co-administered i.p. during the i.v. infusion of ISO (0.04 μg/kg/min). In addition, in conscious mice ACh (0.01 and 0.05 mg/kg), atropine (0.25, 1 and 2 mg/kg), or verapamil (0.75 mg/kg) were administered i.v., and the ECG was recorded. A recovery period of 15 min was allowed for the HR to return to baseline before administering the next drug. To examine HR responses to baroreflex hypertension, phenylephrine (0.2 mg/kg i.v.) was infused, and the ECG and arterial pressure were measured

AC3 = molecular target: T2, AC3 (Rattus norvegicus, UniProt P21932); assay: AC catalytic activity inhibition, AC3 isoform; format: biochemical; settings: in the presence of Gsalpha/GTPgammaS/forskolin
T2 sequence (P21932 1-1144): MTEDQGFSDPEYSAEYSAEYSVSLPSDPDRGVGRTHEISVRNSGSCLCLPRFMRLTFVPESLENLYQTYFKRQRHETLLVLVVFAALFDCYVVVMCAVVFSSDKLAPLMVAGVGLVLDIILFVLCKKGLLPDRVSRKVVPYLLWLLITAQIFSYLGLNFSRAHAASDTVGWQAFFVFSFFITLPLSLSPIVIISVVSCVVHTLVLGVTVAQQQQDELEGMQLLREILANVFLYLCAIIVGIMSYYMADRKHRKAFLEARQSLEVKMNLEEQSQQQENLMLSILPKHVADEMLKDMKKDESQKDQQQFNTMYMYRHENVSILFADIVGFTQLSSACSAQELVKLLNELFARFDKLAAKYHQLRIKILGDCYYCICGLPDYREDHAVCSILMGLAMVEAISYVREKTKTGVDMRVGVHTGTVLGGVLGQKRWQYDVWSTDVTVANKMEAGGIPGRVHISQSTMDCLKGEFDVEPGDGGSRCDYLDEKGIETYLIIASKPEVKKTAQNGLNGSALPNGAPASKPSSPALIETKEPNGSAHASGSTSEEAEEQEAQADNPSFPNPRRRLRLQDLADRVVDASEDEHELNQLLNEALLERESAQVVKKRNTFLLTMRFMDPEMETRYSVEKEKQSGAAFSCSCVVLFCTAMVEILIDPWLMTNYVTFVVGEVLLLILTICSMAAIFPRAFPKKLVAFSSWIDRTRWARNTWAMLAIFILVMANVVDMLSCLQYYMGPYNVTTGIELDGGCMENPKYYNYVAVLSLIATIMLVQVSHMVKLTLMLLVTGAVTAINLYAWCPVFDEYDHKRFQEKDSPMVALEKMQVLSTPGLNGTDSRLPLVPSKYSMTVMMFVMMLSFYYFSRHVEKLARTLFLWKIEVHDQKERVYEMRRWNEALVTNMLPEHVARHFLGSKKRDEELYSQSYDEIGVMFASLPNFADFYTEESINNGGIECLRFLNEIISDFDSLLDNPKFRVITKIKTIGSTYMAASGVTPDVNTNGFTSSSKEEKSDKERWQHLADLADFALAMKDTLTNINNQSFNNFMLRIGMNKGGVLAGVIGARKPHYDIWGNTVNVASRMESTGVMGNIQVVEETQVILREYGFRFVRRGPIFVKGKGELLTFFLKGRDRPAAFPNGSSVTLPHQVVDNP
Excerpt: (§1) Classic inhibitors of AC include adenosine analogs or P-site inhibitors, and MDL12330A, a non-nucleic acid inhibitor.
(§2) Inventors will first determine the selectivity among the AC isoforms (FIG. 12).

AC2 = AC2 (Rattus norvegicus, UniProt P26769); assay: AC catalytic activity inhibition, AC2 isoform; format: biochemical; settings: in the presence of Gsalpha/GTPgammaS/forskolin
Excerpt: as §1, §2

cardiac AC = assay: AC assay in heart membrane preparations; format: biochemical, mouse; settings: 10 μM
Protocol: FIG. 17: Adrenergic, muscarinic, and Ca^2+-mediated regulation of cardiac AC activity. A, AC activity in vitro. The steady state AC activity was determined as the maximal cAMP production over 15 min. Stimulation was performed at the level of the β-AR (ISO), G-protein (GTPγS) and AC catalytic unit with forskolin (Fsk). *P<0.01, n=5. B, Effects of carbachol on AC activity. AC was preactivated by ISO. AC activity was then determined in the absence and presence of carbachol. Carbachol at 10 μmol/L produced its maximal inhibitory effect. *P<0.01, n−5. C, To investigate the inhibition of AC activity by Ca^2+, we examined cAMP production in membranes from the hearts of WT and AC5KO at increasing Ca^2+ concentrations in the presence of ISO. ISO-stimulated AC activity was inhibited more in WT than in AC5KO. […].
Hearts were dissected from the mice and membrane preparations were prepared as described previously. Protein concentration was measured by the method of Bradford using bovine serum albumin as a standard. AC activity was measured as described previously. AC activity was linear within the incubation time up to 30 min. In order to harvest hearts for tissue cAMP content measurements, mice were allowed to acclimate to the surroundings in the laboratory for an hour before sacrifice. Freshly isolated hearts were briefly immersed in liquid nitrogen. The tissue was homogenized in ice-cold 6% percholic acid, and cAMP was extracted as described before. The concentration of cAMP was determined with an RIA kit (PerkinElmer Life Sciences, Boston, Mass., USA).
Hearts were dissected from the mice, and membrane preparations were prepared as described previously. Protein concentration was measured by the Bradford method using bovine serum albumin as a standard. AC activity was measured as described previously. AC activity was linear within the incubation time up to 30 min. For the study of Ca 2+ inhibition, the membranes were treated first with EGTA to extract the endogenous Ca 2+ prior to the assay. Free Ca 2+ concentrations were obtained with the use of 200 μmol/L EGTA buffers as described previously. The experiments with Ca 2+ inhibition were conducted in the presence of 100 μmol/L isoproterenol (ISO)+100 μmol/L GTP.

T1 sequence (P30803 whole entry, canonical isoform): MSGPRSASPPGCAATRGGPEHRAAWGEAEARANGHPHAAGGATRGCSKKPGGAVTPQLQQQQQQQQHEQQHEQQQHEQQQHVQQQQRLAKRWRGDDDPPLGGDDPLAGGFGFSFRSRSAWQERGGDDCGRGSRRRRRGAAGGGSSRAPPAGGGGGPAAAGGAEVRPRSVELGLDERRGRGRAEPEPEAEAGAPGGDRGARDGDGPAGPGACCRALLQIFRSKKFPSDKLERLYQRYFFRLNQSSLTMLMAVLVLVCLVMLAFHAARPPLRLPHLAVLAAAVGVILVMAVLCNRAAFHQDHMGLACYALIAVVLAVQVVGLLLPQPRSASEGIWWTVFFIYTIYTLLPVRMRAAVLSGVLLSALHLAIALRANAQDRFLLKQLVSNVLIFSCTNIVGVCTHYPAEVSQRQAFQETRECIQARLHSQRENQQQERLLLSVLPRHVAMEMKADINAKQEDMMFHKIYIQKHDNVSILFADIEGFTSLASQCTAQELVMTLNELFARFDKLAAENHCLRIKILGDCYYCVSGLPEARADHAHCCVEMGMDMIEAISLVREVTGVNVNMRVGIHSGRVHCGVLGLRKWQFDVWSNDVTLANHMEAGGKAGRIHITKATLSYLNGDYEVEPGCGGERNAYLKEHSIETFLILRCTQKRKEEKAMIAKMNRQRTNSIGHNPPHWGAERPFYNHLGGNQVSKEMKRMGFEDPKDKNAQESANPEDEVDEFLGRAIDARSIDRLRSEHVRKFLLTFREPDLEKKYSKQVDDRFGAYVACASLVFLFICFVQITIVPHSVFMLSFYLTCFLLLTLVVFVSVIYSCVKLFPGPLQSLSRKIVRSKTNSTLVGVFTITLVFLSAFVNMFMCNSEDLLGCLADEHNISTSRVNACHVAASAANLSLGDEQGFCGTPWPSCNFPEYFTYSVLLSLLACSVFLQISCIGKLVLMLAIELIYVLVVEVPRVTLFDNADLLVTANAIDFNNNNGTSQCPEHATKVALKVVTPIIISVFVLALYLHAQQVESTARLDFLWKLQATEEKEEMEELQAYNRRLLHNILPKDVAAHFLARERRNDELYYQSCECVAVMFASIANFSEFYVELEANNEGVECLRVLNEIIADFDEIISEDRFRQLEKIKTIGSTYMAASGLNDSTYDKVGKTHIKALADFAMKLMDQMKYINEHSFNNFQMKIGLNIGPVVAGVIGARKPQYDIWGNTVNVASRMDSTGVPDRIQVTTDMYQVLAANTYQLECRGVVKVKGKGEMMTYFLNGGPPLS

Nc1ncnc2c1ncn2[C@H]1C[C@H](OP(=O)(O)O)[C@@H](CO)O1 [2′-d-3′-AMP]
pIC50 (AC5 [1]): 6.09

Nc1ncnc2c1ncn2[C@@H]1O[C@H](CO)[C@@H](OP(=O)(O)O)[C@H]1O [3′-AMP]
pIC50 (AC5 [1]): 4.84

CC[C@@]1(C)CC(=O)[C@@]2(O)[C@]3(C)[C@H](O)CCC(C)(C)[C@H]3[C@@H](O)[C@@H](OC(C)=O)[C@]2(C)O1 [14,15-Dihydroforskolin]
AC5 selectivity of stimulation (in words) (AC5 [2]): small enhancement in AC5 selectivity

CC(=O)OCC[N+](C)(C)C [ACh, acetylcholine]
decrease of HR ([3]; conscious AC5KO, 0.01 μg/g i.v. (Example 2)): 7.5% | decrease of HR ([3]; conscious AC5KO, 0.01 mg/kg i.v. (Example 3)): 1.3% | decrease of HR ([3]; conscious WT, 0.01 μg/g i.v. (Example 2)): 22% | decrease of HR ([3]; conscious WT, 0.01 mg/kg i.v. (Example 3)): 15%

Nc1ncnc2c1ncn2C1CCCC1 [CPA, 9-(cyclopentyl)adenine]
inhibition of AC3 (in words) (AC3): only to a modest degree | inhibition of AC2 (in words) (AC2): only to a modest degree | inhibition of AC5 (in words) (AC5 [1]; in the presence of Gsalpha/GTPgammaS/forskolin): potently inhibited AC5

C[N+](C)(C)CCOC(N)=O [Carbachol]
decrease of ISO-stimulated AC activity (in words) (cardiac AC; AC5KO heart membranes): did not inhibit; also recorded: hardly detectable | decrease of ISO-stimulated AC activity (cardiac AC; WT heart membranes, ISO 100 μM + GTP 100 μM): 21±3.4% and 21±3%

CNC[C@H](O)c1cccc(O)c1 [Phenylephrine, phenylephrine]
systolic arterial pressure (in words) ([3]; WT and AC5KO, 0.2 μg/g (0.2 mg/kg) i.v.): increased systolic arterial pressure significantly in both WT and AC5KO; also recorded: increased systolic arterial pressure similarly in both WT and AC5KO

CN1[C@@H]2CC[C@H]1C[C@@H](OC(=O)C(CO)c1ccccc1)C2 (stereo partly drawn) [atropine]
increase in HR ([3]; conscious AC5KO): 19±7.5 beats/min | increase in HR (in words) ([3]; conscious AC5KO, 1 mg/kg i.v. (Example 3)): not observed in AC5KO | increase in HR ([3]; conscious WT): 102±22.2 beats/min

COc1ccc(CCN(C)CCCC(C#N)(c2ccc(OC)c(OC)c2)C(C)C)cc1OC (stereo not drawn) [verapamil]
change of HR ([3]; conscious AC5KO): −33±10 beats/min | change of HR ([3]; conscious WT): −36±10 beats/min
